Results published in ChEMBL document CHEMBL4118274, “Synthesis and biological evaluation of pyridine-linked indanone derivatives: Potential agents for inflammatory bowel disease” (Bioorg Med Chem Lett, 2018).
Activity calls are given as the source filed them. No cut-off for these calls is given here.

Assays:
[1] = biological target: Tumor necrosis factor (Homo sapiens) (UniProt P01375); assay: Inhibition of TNFalpha (unknown origin)-induced adhesion of BCECF fluorescence-labeled human U937 cells to human HT-29 cells at 10 uM measured at 3 hrs post TNFalpha stimulation relative to control
[2] = biological target: Tumor necrosis factor (Homo sapiens) (UniProt P01375); assay: Potency index, ratio of test compound activity to 5-aminosalicylate activity for inhibition of TNFalpha (unknown origin)-induced adhesion of BCECF fluorescence-labeled human U937 cells to human HT-29 cells
[3] = biological target: Tumor necrosis factor (Homo sapiens) (UniProt P01375); assay: Inhibition of TNFalpha (unknown origin)-induced NFkappaB transcriptional activity in human HT-29 cells at 10 uM pretreated with cells for 1 hr followed by TNFalpha induction for 3 hrs by dual luciferase reporter gene assay; type: cell-based
[4] = biological target: Tumor necrosis factor (Homo sapiens) (UniProt P01375); assay: Inhibition of TNFalpha (unknown origin)-induced decrease in E-cadherin expression in human HT-29 cells at 10 uM pretreated with cells for 1 hr followed by TNFalpha induction for 3 hrs by Western blot analysis; type: cell-based
Rattus norvegicus [5] = assay: In vivo of inhibition of TNBS-induced decrease in body weight in TNBS-induced colitis Sprague-Dawley rat model at 300 mg/kg/day, po administered on day of TNBS administration and on four consecutive days measured on day 6; type: functional, organism-based
Rattus norvegicus [6] = assay: In vivo of inhibition of TNBS-induced increase in colon weight in TNBS-induced colitis Sprague-Dawley rat model at 300 mg/kg/day, po administered on day of TNBS administration and on four consecutive days measured on day 6; type: functional, organism-based
Rattus norvegicus [7] = assay: In vivo of inhibition of TNBS-induced increase in myeloperoxidase level in TNBS-induced colitis Sprague-Dawley rat model colon tissue at 300 mg/kg/day, po administered on day of TNBS administration and on four consecutive days measured on day 6; type: functional, organism-based
[8] = biological target: Tumor necrosis factor (Homo sapiens) (UniProt P01375); assay: Inhibition of TNFalpha (unknown origin)-induced adhesion of BCECF fluorescence-labeled human U937 cells to human HT-29 cells at 20 mM measured at 3 hrs post TNFalpha stimulation relative to control
Rattus norvegicus [9] = assay: In vivo of inhibition of TNFalpha-induced decrease in E-cadherin expression in TNBS-induced colitis Sprague-Dawley rat model at 25 mg/kg/day, po administered on day of TNBS administration and on four consecutive days measured on day 6 by Western blot method; type: functional, organism-based
Rattus norvegicus [10] = assay: In vivo of inhibition of TNBS-induced increase in colon weight in TNBS-induced colitis Sprague-Dawley rat model at 25 mg/kg/day, po administered on day of TNBS administration and on four consecutive days measured on day 6; type: functional, organism-based
Rattus norvegicus [11] = assay: In vivo of inhibition of TNBS-induced up-regulation of TNFalpha in TNBS-induced colitis Sprague-Dawley rat model at 25 mg/kg/day, po administered on day of TNBS administration and on four consecutive days measured on day 6 by Western blot method; type: functional, organism-based
Rattus norvegicus [12] = assay: In vivo of inhibition of TNBS-induced decrease in body weight in TNBS-induced colitis Sprague-Dawley rat model at 25 mg/kg/day, po administered on day of TNBS administration and on four consecutive days measured on day 6; type: functional, organism-based
Rattus norvegicus [13] = assay: In vivo of inhibition of TNFalpha-induced up-regulation of MCP-1 expression in TNBS-induced colitis Sprague-Dawley rat model at 25 mg/kg/day, po administered on day of TNBS administration and on four consecutive days measured on day 6 by Western blot method; type: functional, organism-based
Rattus norvegicus [14] = assay: In vivo of inhibition of TNBS-induced up-regulation of IL-1beta in TNBS-induced colitis Sprague-Dawley rat model at 25 mg/kg/day, po administered on day of TNBS administration and on four consecutive days measured on day 6 by Western blot method; type: functional, organism-based
Rattus norvegicus [15] = assay: In vivo of inhibition of TNFalpha-induced SNAIL expression in TNBS-induced colitis Sprague-Dawley rat model at 25 mg/kg/day, po administered on day of TNBS administration and on four consecutive days measured on day 6 by Western blot method; type: functional, organism-based
[16] = biological target: Tumor necrosis factor (Homo sapiens) (UniProt P01375); assay: Inhibition of TNFalpha (unknown origin)-induced SNAIL expression in human HT-29 cells at 10 uM pretreated with cells for 1 hr followed by TNFalpha induction for 3 hrs by Western blot analysis; type: cell-based
[17] = biological target: Tumor necrosis factor (Homo sapiens) (UniProt P01375); assay: Inhibition of TNFalpha (unknown origin)-induced ICAM-1 expression in human HT-29 cells at 10 uM preincubated with cells for 1 hr followed by TNFalpha induction of 3 hrs by Western blot analysis; type: cell-based
Rattus norvegicus [18] = assay: In vivo of inhibition of TNFalpha-induced up-regulation of ICAM-1 expression in TNBS-induced colitis Sprague-Dawley rat model at 25 mg/kg/day, po administered on day of TNBS administration and on four consecutive days measured on day 6 by Western blot method; type: functional, organism-based
[19] = biological target: Tumor necrosis factor (Homo sapiens) (UniProt P01375); assay: Potency index, ratio of 5-aminosalicylate IC50 to test compound IC50 for TNFalpha (unknown origin)-induced adhesion of BCECF fluorescence-labeled human U937 cells to human HT-29
[20] = biological target: Tumor necrosis factor (Homo sapiens) (UniProt P01375); assay: Inhibition of TNFalpha (unknown origin)-induced MCP-1 expression in human HT-29 cells at 10 uM preincubated with cells for 1 hr followed by TNFalpha induction of 3 hrs by Western blot analysis; type: cell-based
Rattus norvegicus [21] = assay: In vivo of inhibition of TNBS-induced increase in myeloperoxidase level in TNBS-induced colitis Sprague-Dawley rat model colon tissue at 25 mg/kg/day, po administered on day of TNBS administration and on four consecutive days measured on day 6; type: functional, organism-based

Sequence of Tumor necrosis factor (Homo sapiens) (P01375 whole entry): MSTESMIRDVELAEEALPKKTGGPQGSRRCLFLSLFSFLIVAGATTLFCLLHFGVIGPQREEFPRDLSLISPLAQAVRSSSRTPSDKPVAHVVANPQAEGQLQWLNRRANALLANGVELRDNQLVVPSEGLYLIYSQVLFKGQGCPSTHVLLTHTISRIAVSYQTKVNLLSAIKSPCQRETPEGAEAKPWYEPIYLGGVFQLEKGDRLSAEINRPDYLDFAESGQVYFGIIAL

O=C1/C(=C/c2ccncc2)Cc2cc(O)ccc21
inhibition [1]: 26.6%
Ratio [2]: 7 to 23

O=C1/C(=C/c2cccnc2)Cc2cccc(O)c21
inhibition [1]: 46.1%
Ratio [2]: 7 to 23

CC(C)Oc1ccc2c(c1)C(=O)/C(=C/c1ccncc1)C2
inhibition [1]: 45.7%

CC(C)Oc1cccc2c1C/C(=C\c1ccncc1)C2=O
inhibition [1]: 60.9%

O=C1/C(=C/c2cccnc2)Cc2ccc(O)cc21
inhibition [3]: Active
inhibition [1]: 74.7%
inhibition [4]: inactive
Ratio [2]: 7 to 23

O=C1/C(=C/c2ccccn2)Cc2cccc(O)c21
inhibition [1]: 46.2%
Ratio [2]: 7 to 23

O=C(O)c1cc(/N=N/c2ccc(S(=O)(=O)Nc3ccccn3)cc2)ccc1O
inhibition (Rattus norvegicus [5]): Active
inhibition (Rattus norvegicus [6]): Active
inhibition (Rattus norvegicus [7]): Active

Nc1ccc(O)c(C(=O)O)c1
inhibition [8]: 52.1%

CCOc1cccc2c1C/C(=C\c1ccncc1)C2=O
inhibition [1]: 51.2%

O=C1/C(=C/c2cccnc2)Cc2cc(O)ccc21
inhibition [1]: 67%
Ratio [2]: 7 to 23

O=C1/C(=C/c2ccncc2)Cc2cccc(O)c21
inhibition [3]: Active
inhibition [1]: 74.6%
inhibition [4]: inactive
Ratio [2]: 7 to 23

O=C1/C(=C/c2cccnc2)Cc2c(O)cccc21
inhibition [3]: Active
inhibition [1]: 70.8%
inhibition [4]: inactive
Ratio [2]: 7 to 23

O=C1/C(=C/c2ccccn2)Cc2ccc(O)cc21
inhibition [1]: 54.8%
Ratio [2]: 7 to 23

COc1ccc2c(c1)C(=O)/C(=C/c1ccncc1)C2
inhibition [1]: 4.1%

CCOc1ccc2c(c1)C(=O)/C(=C/c1ccncc1)C2
inhibition [1]: 7.3%

O=C1/C(=C/c2ccccn2)Cc2cc(O)ccc21
inhibition [1]: 58.1%
Ratio [2]: 7 to 23

O=C1/C(=C/c2ccccn2)Cc2c(O)cccc21
inhibition [1]: 64.5%
Ratio [2]: 7 to 23

O=C1/C(=C/c2ccncc2)Cc2ccc(O)cc21
inhibition [3]: Active
inhibition [1]: 85.5%
inhibition (Rattus norvegicus [9]): Active
inhibition (Rattus norvegicus [10]): Active
inhibition (Rattus norvegicus [11]): Active
inhibition (Rattus norvegicus [12]): Active
inhibition (Rattus norvegicus [13]): Active
inhibition (Rattus norvegicus [14]): Active
inhibition (Rattus norvegicus [15]): Active
inhibition [16]: Active
inhibition [17]: Active
inhibition (Rattus norvegicus [18]): Active
inhibition [4]: Active
Ratio IC50 [19]: > 10000
inhibition [20]: Active
Ratio [2]: 7 to 23
inhibition (Rattus norvegicus [21]): Active

O=C1/C(=C/c2ccncc2)Cc2c(O)cccc21
inhibition [3]: Active
inhibition [1]: 78%
inhibition (Rattus norvegicus [9]): Active
inhibition (Rattus norvegicus [10]): Active
inhibition (Rattus norvegicus [11]): Active
inhibition (Rattus norvegicus [12]): Active
inhibition (Rattus norvegicus [13]): Active
inhibition (Rattus norvegicus [14]): Active
inhibition (Rattus norvegicus [15]): Active
inhibition [16]: Active
inhibition [17]: Active
inhibition (Rattus norvegicus [18]): Active
inhibition [4]: Active
inhibition [20]: Active
Ratio [2]: 7 to 23
inhibition (Rattus norvegicus [21]): Active

COc1cccc2c1C/C(=C\c1ccncc1)C2=O
inhibition [1]: 5.9%
